Assay results reported in PMC11013136, “Design, Synthesis, and Anti-Leukemic Evaluation of a Series of Dianilinopyrimidines by Regulating the Ras/Raf/MEK/ERK and STAT3/c-Myc Pathways” (Molecules, 2024).

Assays:
K562 cells = test: MTT cell viability assay, K562 cells; type: cell-based; conditions: Homo sapiens, 48 h
Protocol: (§1) To estimate the effects of N-Phenyl-2-pyrimidinamine derivatives (Figure 1A) on HEL, K562, and Jurkat cells, we treated these cells with the compounds at different concentrations (1–20 μM) for 48 h. […] H-121 could selectively impair the proliferation of HEL and Jurkat cells. H-123 blocked the proliferation of the Jurkat cells. Those four compounds had no toxicity to the HL7702 cell line.
(§2) The logarithmically grown HEL cells were seeded in a 96-well culture plate at a density of 8000 cells per well and treated with different concentrations of H-120 (0.125 μM, 0.25 μM, 0.5 μM, and 1 μM) or 0.1% DMSO (control). After 24 h, 48 h, and 72 h treatment, the cells were added to 10 μL of MTT reagent for 4 h, and then added to 100 μL of triple cleavage fluid (SDS 10 g, isobutanol 5 mL and 10M HCl 0.1 mL, dissolved with ddH2O into 100 mL solution). After using a microscope to observe the completely dissolved crystal, the cells’ optical absorbance value was measured at 570 nm using an enzyme-labeling instrument (BioTek, Winooski, VT, United States). Inhibition rate = (OD value of DMSO group-OD value of experimental group)/OD value of DMSO group × 100%.

Jurkat cells = test: MTT cell viability assay, Jurkat cells; type: cell-based; conditions: Homo sapiens, 48 h
Protocol: as §1, §2

HEL cells [1] = test: MTT cell viability assay, HEL cells; type: cell-based; conditions: for IC50: Homo sapiens, HEL, 48 h
Protocol: as §1
(§3) To validate the effects of H-120 on the viability of HEL cells, we treated the cells with the compound at different concentrations (1–20 μM) for 24 h, 48 h, and 72 h. […] However, H-120 was not cytotoxic on normal HL7702 (IC50 > 20 μM) (Figure 1B). The morphology of HEL cells treated with H-120 gradually crumpled and appeared fragmented (Figure 1E).
as §2
The logarithmically grown HEL cells were collected and planted in 96-well plates at a density of 8000 cells per well. After the cell state was stabilized, HEL cells were treated with H-120 solution (0.125 μM, 0.25 μM, 0.5 μM, 1 μM), and then the OD value was measured at 570 nm in different periods of time. The growth curves were plotted.

HL7702 cells = test: MTT cytotoxicity on normal hepatic cell line HL7702; type: cell-based; conditions: Homo sapiens, L02, 48 h
Protocol: as §1, §3, §2

[2] = tested on: F-MuLV-induced leukemia mice; test: F-MuLV-induced erythroleukemia mice; type: in vivo, BALB/c mice; conditions: for number of leukemic cells in the spleens (H&E staining): VCR 0.25 mg/kg, H-120 1-4 mg/kg intraperitoneally
Text: We used the F-MuLV-induced leukemia mice to determine the anti-leukemia activity of H-120. […] The effect of H-120 treatment is similar to that in the vincristine (VCR) treatment group (Figure 6A,C). […] The CD71 and Ter119 have been broadly used to reflect mice’s dynamic maturation of erythrocytes. We tested CD71 and Ter119 expression in spleen cells and bone marrow cells by using flow cytometry.
The NIH3T3 cells expressing the F-MuLV clone 57 vector were donated by Professor Ben-David Yaacov, Key Laboratory of Natural Product Chemistry, Chinese Academy of Sciences, Guizhou Province. In order to induce leukemia, BALB/c mice (male and females; Tongxin, Chongqing, China), aged one day, were administered a solitary intraperitoneal injection of F-MuLV. Then, infected neonates were weaned at 4 weeks and randomly divided into 6 groups: normal group (NC), model group (M), positive control group (VCR: 0.25 mg/kg), H-120 low dose group (H-120-L: 1 mg/kg), H-120 medium dose group (H-120-M: 2 mg/kg), and H-120 high dose group (H-120-H: 4 mg/kg). After 5 weeks of virus infection, mice were treated with H-120 intraperitoneally every other day for 3 weeks. The normal and model groups were given saline, and the control group was given vincristine intraperitoneally. Under the supervision of experienced staff, the leukemia mice were sacrificed humanely by cervical dislocation. Serum biochemical indexes of the mice were detected. The spleens of the mice were removed. A portion of the spleen was fixed in formaldehyde for 24 h, and paraffin was embedded and sliced. The effects of H-120 on the normal physiological structure of the spleen were observed by H&E staining. Then, part of the spleen tissue was ground and prepared into a single-cell suspension, which was stained with CD71, Ter119, CD4, CD8a, and B220 antibodies for 30 min, respectively. The expression of markers on the spleen cell surfaces of mice was analyzed by flow cytometry.

HEL cells [3] = test: JC-1 mitochondrial membrane potential assay; type: cell-based; conditions: 0.125-1 μM, 48 h, flow cytometry
Protocol: (§4) Apoptosis plays a crucial role in impairing cancer cell viability. To determine whether the H-120 inhibiting HEL cell growth is caused by apoptosis, we applied HEL cells with different concentrations of H-120. […] To explore the mechanism of apoptosis, we used JC-1 staining to detect the effect of H-120 on mitochondrial membrane potential. […] The results confirmed that H-120 can induce HEL cell apoptosis by impairing mitochondria.
Cells (2 × 10^5) were seeded in a 2 mL medium with different concentrations of H-120 (0.125 μM, 0.25 μM, 0.5 μM, 1 μM). After being treated with H-120 for 48 h, the cells were preincubated with JC-1 working solution for 20 min at 37 °C, 5% CO2. After incubation, the dye was removed, and the cells were washed two times with JC-1 [48].

HEL cells [4] = test: Annexin V-FITC/PI apoptosis detection by flow cytometry; type: cell-based; conditions: 1 μM
Text: as §4
For the apoptosis detection assay, the logarithmically grown HEL cells were treated with H-120 solution (0.125 μM, 0.25 μM, 0.5 μM, and 1 μM) for 24 h, 48 h, and 72 h. Subsequently, the cells were collected and rinsed three times with pre-cooled PBS. Based on the instruction of the Annexin V-FITC apoptosis detection kit, the cells were resuspended in 50 μL of 1 × binding buffer and stained for 15 minutes. Then, the apoptosis rate was determined using flow cytometry (ACEA NovoCyte, San Diego, CA, United States). For cell cycle analysis, HEL cells were treated with the different concentrations of H-120 (0.125 μM, 0.25 μM, 0.5 μM, 1 μM) for 24 h. […] Cells were stained with 0.5 mL of PI (propidium iodide, 50 µg/mL), RNase (5 µg/mL) inhibitor, and Triton × 100 (0.5 µg/mL) for 10 min at room temperature in the dark and then analyzed by flow cytometry.

HEL cells [5] = test: Cell cycle analysis (PI, flow cytometry); type: cell-based; conditions: 0.125-1 μM, 24 h
Protocol: (§5) Cell cycle regulation is critical for cell differentiation and proliferation. To investigate whether H-120 affects the cell cycle of HEL, we treated HEL cells with various concentrations of H-120.
For the apoptosis detection assay, the logarithmically grown HEL cells were treated with H-120 solution (0.125 μM, 0.25 μM, 0.5 μM, and 1 μM) for 24 h, 48 h, and 72 h. Subsequently, the cells were collected and rinsed three times with pre-cooled PBS. Based on the instruction of the Annexin V-FITC apoptosis detection kit, the cells were resuspended in 50 μL of 1 × binding buffer and stained for 15 minutes. Then, the apoptosis rate was determined using flow cytometry (ACEA NovoCyte, San Diego, CA, United States). For cell cycle analysis, HEL cells were treated with the different concentrations of H-120 (0.125 μM, 0.25 μM, 0.5 μM, 1 μM) for 24 h. Cells were collected, fixed with pre-cooled 70% ethanol, and kept at 4 °C for 4 h before being transferred to −20 °C overnight. Cells were stained with 0.5 mL of PI (propidium iodide, 50 µg/mL), RNase (5 µg/mL) inhibitor, and Triton × 100 (0.5 µg/mL) for 10 min at room temperature in the dark and then analyzed by flow cytometry.

HEL cells [6] = test: Hoechst 33258 staining (DNA damage); type: cell-based; conditions: 0.125-1 μM, 24 h
Protocol: as §5
After subjecting HEL cells to H-120 solution (0.125 μM, 0.25 μM, 0.5 μM, 1μM) for 24 h, the cells were collected, resuspended, and washed with pre-cooled PBS. Subsequently, the cells were fixed, stained, and washed according to the instructions provided by the Apoptosis-Hoechst 33258 Staining Kit. To prevent fluorescence interference, an appropriate volume of anti-fluorescence quenching sealing solution was added to the cells. The cells were then placed on a spare slide, covered with a coverslip, and immediately observed and photographed using a Nikonfluorescence microscope.

HEL cells [7] = test: Western blotting of cell cycle, apoptosis, Ras/Raf/MEK/ERK and STAT3/c-Myc proteins; type: cell-based; conditions: Western blot
Text: as §5
To study the effect of H-120 on apoptosis proteins, we treated HEL cells with various concentrations of H-120.
To assess whether the effect of H-120 on HEL cells is involved in the inactivation of Ras/Raf/MEK/ERK/MAPK signaling pathway, we tracked this pathway bottom-up in HEL cells treated with H-120 using Western blotting.
To examine the effect of H-120 on the p-STAT3 and c-Myc, we checked the p-STAT3 and c-Myc levels in HEL cells treated with H-120. […] STAT3 acts through its phosphorylation and enters nuclear. The nuclear–cytoplasmic separation experiment was conducted.
HEL cells were collected after 24 h of H-120 treatment and washed with PBS, and the supernatant was discarded. According to the instructions of the Nuclear and Cytoplasmic Protein Extraction Kit (Beyotime Biotechnology, Shanghai, China), we added cytoplasmic protein extraction reagent A equipped with PMSF (phenylmethanesulfonyl fluoride) and used vigorous vortexing at 2500 rpm for 5 s to suspend and disperse the cell precipitation entirely. After 15 min of an ice bath, we added cytoplasmic protein extraction reagent B. The sample was vigorously vortexed at 2500 rpm for 5 s, then centrifuged at 4 °C for 5 min at 12,000× g, and the supernatant was extracted to leave a precipitate. The supernatant was the cytoplasmic protein. For the precipitate, the […] protein extraction reagent equipped with PMSF was added immediately, mixed, and then placed on ice. The highest-speed vigorous vortex was performed for 20 s every 2 min for 30 min, followed by centrifugation at 12,000× g at 4 °C for 10 min. Finally, the supernatant was taken as the nuclear protein.
HEL cells after drug action were collected, added to and mixed with cell lysis buffer, and […] on ice for one hour before protein concentration was detected using a BCA (bicinchoninic acid) kit. Proteins (50 μg) were separated by sodium dodecyl sulfate-polyacrylamide gel electrophoresis and transferred to a PVDF (polyvinylidene fluoride) membrane ([…], Bio-Rad, Hercules, CA, USA) via wet transfer. Then, 5% bovine serum albumin closed the membrane for 1 h, and the membrane was washed three times with TBS (20 mM Tris-HCl) for 5 min each time. Membranes were allowed to incubate with the primary antibody overnight at 4 °C. The anti-rabbit antibody secondary antibody was incubated at room temperature for 2 h. Then, the membrane was washed with 1× TBST (20 mM Tris-HCl, 0.1% Tween 20) for 15 min. After washing, the fetal membrane was scanned with an infrared imaging scanner. β-actin was used as a loading control.

CNC(=O)c1ccccc1Nc1nc(Nc2ccc(Nc3c(NC45CC6CC(CC(C6)C4)C5)c(=O)c3=O)cc2)ncc1C(F)(F)F [H-122, 2-((2-((4-((2-(((1R,3R,5S)-Adamantan-1-yl)amino)-3,4-dioxocyclobut-1-en-1-yl)amino)phenyl)amino)-5-(trifluoromethyl)pyrimidin-4-yl)amino)-N-methylbenzamide]
IC50 (K562 cells): 16.3 ± 1.11 µM | IC50 (Jurkat cells): 1.63 ± 0.28 µM | IC50 (HEL cells [1]): 11.5 ± 0.53 µM | IC50 (HL7702 cells): > 20 µM

C=CC(=O)Nc1ccc(Nc2ncc(C)c(Nc3sccc3C(=O)NC)n2)cc1 [H-121, 2-((2-((4-Acrylamidophenyl)amino)-5-methylpyrimidin-4-yl)amino)-N-methylthiophene-3-carboxamide]
IC50 (K562 cells): > 20 µM | IC50 (Jurkat cells): 10.4 ± 0.238 µM | IC50 (HEL cells [1]): 8.78 ± 0.45 µM | IC50 (HL7702 cells): > 20 µM

CC[C@]1(O)C[C@H]2CN(CCc3c([nH]c4ccccc34)[C@@](C(=O)OC)(c3cc4c(cc3OC)N(C=O)[C@H]3[C@@](O)(C(=O)OC)[C@H](OC(C)=O)[C@]5(CC)C=CCN6CC[C@]43[C@@H]65)C2)C1 [VCR, Vincristine, reference compound]
number of leukemic cells in the spleens (H&E staining) ([2]; vs model group): decreased significantly

C#CC(=O)Nc1ccc(Nc2ncc(C)c(Nc3sccc3C(=O)NC)n2)cc1 [H-120, 2-[5-Methyl-2-(4-propynoylamino-phenylamino)-pyrimidin-4-ylamino]-thiophene-3-carboxylic acid methylamide]
IC50 (K562 cells): 2.34 ± 0.22 µM | relative value of the JC-1 monomer (HEL cells [3]): significantly increased | apoptosis rate of HEL cells (HEL cells [4]; 48 h): 14.28% | apoptosis rate of HEL cells (HEL cells [4]; 72 h): 36.45% | proportion of the G2/M phase in HEL cells (HEL cells [5]): increased | IC50 (Jurkat cells): 0.665 ± 0.02 µM | DNA damage (Hoechst staining) (HEL cells [6]): caused DNA damage in a dose-dependent manner | Bad, cleaved caspase-9, cleaved caspase-3 and cleaved PARP expression (HEL cells [7]): up-regulated considerably | Bcl-2 and Bcl-xL expression (HEL cells [7]): significantly down-regulated | expressions of Ras, phosphorylated Raf, MEK and ERK (HEL cells [7]): significantly reduce | levels of cell cycle proteins p-CDC25C and CyclinB1 (HEL cells [7]; dose-dependent): decreased | p53 level (HEL cells [7]; dose-dependent): up-regulated | p-STAT3 and c-Myc levels (HEL cells [7]; dose-dependent): significantly down-regulated | HEL cell proliferation (HEL cells [1]; 24 h, 48 h and 72 h): prevented the HEL cell proliferation in a dose- and time-dependent manner | IC50 (HEL cells [1]): 0.148 ± 0.04 µM | effects on renal and cardiac functions (URA, CREA, UA, CK-MB) ([2]; erythroleukemia mice): no effects | proportions of CD4, CD8a and B220 cells in spleen ([2]; flow cytometry): increased significantly | mature erythrocytes CD71-Ter119+ in spleen cells and bone marrow cells ([2]; flow cytometry, vs model group): significantly increased | levels of liver index, ALT and AST ([2]; vs model group): significantly lower | number of leukemic cells in the spleens (H&E staining) ([2]; vs model group): decreased significantly | spleen weight ([2]; vs model mice, H-120 1, 2, 4 mg/kg intraperitoneally every other day for 3 weeks): significantly declined | IC50 (HL7702 cells): > 20 µM

CNC(=O)c1ccsc1Nc1nc(Nc2ccc(Nc3c(NC45CC6CC(CC(C6)C4)C5)c(=O)c3=O)cc2)ncc1C(F)(F)F [H-123, 2-((2-((4-((2-(((1R,3R,5S)-Adamantan-1-yl)amino)-3,4-dioxocyclobut-1-en-1-yl)amino)phenyl)amino)-5-(trifluoromethyl)pyrimidin-4-yl)amino)-N-methylthiophene-3-carboxamide]
IC50 (K562 cells): > 20 µM | IC50 (Jurkat cells): 5.2 ± 1.17 µM | IC50 (HEL cells [1]): > 20 µM | IC50 (HL7702 cells): > 20 µM
